Measured values: patent US20180036433A1, “COMPOUNDS FOR THE DIAGNOSIS OR TREATMENT OF DISORDERS ASSOCIATED WITH PROTEIN OR PEPTIDE OLIGOMERS” (Agency for Science, Technology and Research, priority 2014, published 2018)

How the values were obtained:
[1] = target: monomers, oligomers and fibrils of Aβ (synthetic Aβ1-40) (Homo sapiens, UniProt P05067); test: Fluorescence response to pre-formed Aβ monomers, oligomers and fibrils; type: binding; conditions: dye 5 μM, Aβ 20 μM
[2] = target: Aβ1-40 on-fibril pathway oligomers (Homo sapiens, UniProt P05067); test: Time-dependent Aβ fibril formation monitored by dye fluorescence; type: binding; conditions: dye 5 μM, Aβ 20 μM, 37° C.
Aβ1-40 on-fibril pathway oligomers, sequence (P05067 672-711): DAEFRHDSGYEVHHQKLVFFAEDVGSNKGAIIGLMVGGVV

monomers, oligomers and fibrils of Aβ (synthetic Aβ1-40), sequence (P05067 672-711): as above

SMILES: Cc1ccc2c(c1)sc(-c1ccc(N(C)C)cc1)[n+]2C.[Cl-] [ThT, Thioflavin T]
- fluorescence response to Aβ monomers, oligomers and fibrils [1]: fluorescence response in the increasing order of freshly prepared Aβ monomers, followed by oligomer and fibrils
- fluorescence over the time course of Aβ fibril formation [2]: reached a maximum fluorescence after about 1-day and plateaus
